Measurements taken from US11447466B2, “Substituted indole compounds useful as inhibitors of TLR7/8/9” (BRISTOL-MYERS SQUIBB COMPANY, priority 2017, dated 2022).

Tests used:
Format in all cases: cell-based
[1] = biological target: T1, human TLR7 (Homo sapiens, UniProt Q9NYK1); experiment: TLR7 inhibition reporter assay (HEK-Blue SEAP reporter, gardiquimod stimulation); details: HEK-Blue cells overexpressing human TLR7, SEAP reporter, gardiquimod 7.5 μM, 22 hour incubation
T1 construct: host or cells: HEK-Blue cells
T1 sequence (Q9NYK1 27-1049): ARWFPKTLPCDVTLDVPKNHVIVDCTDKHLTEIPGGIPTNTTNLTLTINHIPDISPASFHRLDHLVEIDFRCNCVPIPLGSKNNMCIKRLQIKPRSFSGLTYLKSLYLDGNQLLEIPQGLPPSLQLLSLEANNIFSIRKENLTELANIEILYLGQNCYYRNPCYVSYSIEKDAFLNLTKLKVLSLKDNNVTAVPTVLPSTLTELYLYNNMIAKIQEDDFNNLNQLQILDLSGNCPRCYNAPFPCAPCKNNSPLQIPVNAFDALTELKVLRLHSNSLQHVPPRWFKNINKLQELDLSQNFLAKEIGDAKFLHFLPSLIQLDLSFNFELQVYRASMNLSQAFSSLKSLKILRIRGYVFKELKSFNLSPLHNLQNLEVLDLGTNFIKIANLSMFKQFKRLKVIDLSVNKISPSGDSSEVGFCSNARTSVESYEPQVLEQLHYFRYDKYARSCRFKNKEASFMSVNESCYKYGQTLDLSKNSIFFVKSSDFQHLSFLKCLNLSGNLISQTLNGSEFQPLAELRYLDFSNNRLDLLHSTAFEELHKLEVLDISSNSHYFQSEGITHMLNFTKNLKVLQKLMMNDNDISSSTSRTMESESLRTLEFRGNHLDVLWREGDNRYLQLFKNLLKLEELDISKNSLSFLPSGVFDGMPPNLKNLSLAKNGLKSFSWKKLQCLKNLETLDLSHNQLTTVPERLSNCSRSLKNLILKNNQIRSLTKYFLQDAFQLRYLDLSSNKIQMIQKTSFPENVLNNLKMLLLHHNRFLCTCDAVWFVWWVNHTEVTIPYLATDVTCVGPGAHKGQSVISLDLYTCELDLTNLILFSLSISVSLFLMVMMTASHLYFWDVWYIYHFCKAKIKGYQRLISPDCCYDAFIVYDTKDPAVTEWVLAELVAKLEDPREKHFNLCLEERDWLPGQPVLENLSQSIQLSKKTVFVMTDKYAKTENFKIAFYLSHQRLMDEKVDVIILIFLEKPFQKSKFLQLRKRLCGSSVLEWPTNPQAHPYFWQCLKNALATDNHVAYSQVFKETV
How it was run: (§1)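 Compound treatment: 30 min, RT, 0.05 nM–50 μM final. Agonist: TLR7 gardiquimod 7.5 μM; TLR8 R848 15.9 μM; TLR9 ODN2006 5 nM. Incubation 22 h, 37 °C, 5% CO2. Readout SEAP, HEK-Blue Detection.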

[2] = biological target: T2, human TLR8 (Homo sapiens, UniProt Q9NR97); experiment: TLR8 inhibition reporter assay (HEK-Blue SEAP reporter, R848 stimulation); details: HEK-Blue cells overexpressing human TLR8, SEAP reporter, R848 15.9 μM, 22 hour incubation
T2 construct: host or cells: HEK-Blue cells
T2 sequence (Q9NR97 27-1041): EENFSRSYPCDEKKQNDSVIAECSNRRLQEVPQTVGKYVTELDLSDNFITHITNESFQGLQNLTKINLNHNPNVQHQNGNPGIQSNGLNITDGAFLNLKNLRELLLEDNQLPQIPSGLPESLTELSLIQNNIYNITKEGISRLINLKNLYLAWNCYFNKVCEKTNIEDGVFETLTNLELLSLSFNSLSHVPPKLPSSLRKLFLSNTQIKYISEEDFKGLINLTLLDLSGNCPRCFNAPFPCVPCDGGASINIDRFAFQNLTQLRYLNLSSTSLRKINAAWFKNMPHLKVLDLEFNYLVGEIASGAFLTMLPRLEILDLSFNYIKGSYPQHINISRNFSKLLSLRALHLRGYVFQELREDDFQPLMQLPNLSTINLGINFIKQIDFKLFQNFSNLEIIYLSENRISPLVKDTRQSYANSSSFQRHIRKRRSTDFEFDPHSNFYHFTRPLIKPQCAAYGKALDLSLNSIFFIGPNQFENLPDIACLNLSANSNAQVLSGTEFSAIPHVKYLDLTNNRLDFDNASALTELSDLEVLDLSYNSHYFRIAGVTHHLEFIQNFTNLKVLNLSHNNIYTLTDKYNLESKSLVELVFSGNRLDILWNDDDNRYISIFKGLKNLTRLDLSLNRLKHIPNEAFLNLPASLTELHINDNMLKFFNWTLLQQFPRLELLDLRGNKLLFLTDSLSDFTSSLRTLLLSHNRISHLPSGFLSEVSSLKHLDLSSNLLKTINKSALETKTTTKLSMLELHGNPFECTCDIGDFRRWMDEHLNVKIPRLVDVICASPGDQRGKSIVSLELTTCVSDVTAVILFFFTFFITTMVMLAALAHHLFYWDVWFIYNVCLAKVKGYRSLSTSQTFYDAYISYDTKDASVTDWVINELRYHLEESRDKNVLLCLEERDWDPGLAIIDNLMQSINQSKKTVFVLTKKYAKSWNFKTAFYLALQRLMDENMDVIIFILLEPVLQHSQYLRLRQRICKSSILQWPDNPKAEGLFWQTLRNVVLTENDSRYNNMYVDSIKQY
How it was run: as §1

[3] = biological target: T3, human TLR9 (Homo sapiens, UniProt Q9NR96); experiment: TLR9 inhibition reporter assay (HEK-Blue SEAP reporter, ODN2006 stimulation); details: HEK-Blue cells overexpressing human TLR9, SEAP reporter, ODN2006 5 nM, 22 hour incubation
T3 construct: host or cells: HEK-Blue cells
T3 sequence (Q9NR96 26-1032): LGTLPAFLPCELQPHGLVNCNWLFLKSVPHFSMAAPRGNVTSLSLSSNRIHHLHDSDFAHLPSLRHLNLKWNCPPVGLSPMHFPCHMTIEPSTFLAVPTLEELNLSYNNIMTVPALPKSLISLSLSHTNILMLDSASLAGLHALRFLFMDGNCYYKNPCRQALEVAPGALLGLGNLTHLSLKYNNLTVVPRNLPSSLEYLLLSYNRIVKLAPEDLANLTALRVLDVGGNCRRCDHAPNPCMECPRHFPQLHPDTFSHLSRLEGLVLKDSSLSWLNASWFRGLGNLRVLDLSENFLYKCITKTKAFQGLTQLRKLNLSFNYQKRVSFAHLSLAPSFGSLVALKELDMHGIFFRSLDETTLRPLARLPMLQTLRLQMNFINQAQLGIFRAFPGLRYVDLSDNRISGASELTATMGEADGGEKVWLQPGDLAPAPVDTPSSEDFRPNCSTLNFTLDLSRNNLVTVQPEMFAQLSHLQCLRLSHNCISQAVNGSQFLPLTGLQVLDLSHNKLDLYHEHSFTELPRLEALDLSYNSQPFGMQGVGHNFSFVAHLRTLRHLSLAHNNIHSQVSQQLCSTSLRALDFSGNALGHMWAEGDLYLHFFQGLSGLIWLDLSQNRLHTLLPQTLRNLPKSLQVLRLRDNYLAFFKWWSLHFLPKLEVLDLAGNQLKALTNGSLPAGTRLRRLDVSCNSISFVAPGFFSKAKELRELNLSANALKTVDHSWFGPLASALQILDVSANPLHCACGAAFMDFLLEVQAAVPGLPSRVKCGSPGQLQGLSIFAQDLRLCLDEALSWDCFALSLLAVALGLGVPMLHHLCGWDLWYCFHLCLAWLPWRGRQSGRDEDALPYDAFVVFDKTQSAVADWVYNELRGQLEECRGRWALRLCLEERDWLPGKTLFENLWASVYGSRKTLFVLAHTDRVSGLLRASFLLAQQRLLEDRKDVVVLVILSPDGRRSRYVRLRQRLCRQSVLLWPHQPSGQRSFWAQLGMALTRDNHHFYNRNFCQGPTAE
How it was run: as §1

| Structure (SMILES) | IC50 [1] | IC50 [2] | IC50 [3] |
| --- | --- | --- | --- |
| Cc1c(-c2[nH]c3ccc(C4CCNCC4)cc3c2C(C)C)cn(C)c(=O)c1C [Example 14, 5-(3-isopropyl-5-(piperidin-4-yl)-1H-indol-2-yl)-1,3,4-trimethylpyridin-2(1H)-one] | 3.5 nM | 3.6 nM | 1650 nM |
| Cc1cc(-c2[nH]c3ccc(C4CCN(CCC#N)CC4)cc3c2C(C)C)cn(C)c1=O [Example 76, 3-(4-(2-(1,5-dimethyl-6-oxo-1,6-dihydropyridin-3-yl)-3-isopropyl-1H-indol-5-yl)piperidin-1-yl)propanenitrile] | 4.4 nM | 4.7 nM | 19900 nM |
| Cc1cc(-c2[nH]c3ccc(C4CCN(CC5CCOC5)CC4)cc3c2C(C)C)cn(C)c1=O (stereo not drawn) [Example 225, 5-(3-isopropyl-5-(1-((tetrahydrofuran-3-yl)methyl)piperidin-4-yl)-1H-indol-2-yl)-1,3-dimethylpyridin-2(1H)-one] | 4.6 nM | 3.6 nM | 6990 nM |
| CCCN1CCC(c2ccc3[nH]c(-c4cc(-c5ccc(NC(C)=O)nc5)c(=O)n(C)c4)c(C(C)C)c3c2)CC1 [Example 335, N-(5′-(3-isopropyl-5-(1-propylpiperidin-4-yl)-1H-indol-2-yl)-1′-methyl-2′-oxo-1′,2′-dihydro-[3,3′-bipyridin]-6-yl)acetamide] | 2.4 nM | 5.9 nM | 529 nM |
| Cc1cc(-c2[nH]c3ccc(C4CCN(CC5CC5(F)F)CC4)cc3c2C(C)C)cn(C)c1=O (stereo not drawn) [Example 83, 5-(5-(1-((2,2-difluorocyclopropyl)methyl)piperidin-4-yl)-3-isopropyl-1H-indol-2-yl)-1,3-dimethylpyridin-2(1H)-one] | 3.9 nM | 1.2 nM | 7140 nM |
| CC(C)c1cc(-c2[nH]c3ccc(C4CCNCC4)cc3c2C(C)C)cn(C)c1=O [Example 66, 3-isopropyl-5-(3-isopropyl-5-(piperidin-4-yl)-1H-indol-2-yl)-1-methylpyridin-2(1H)-one] | 12.6 nM | 70.5 nM | 764 nM |
| Cc1c(-c2[nH]c3ccc(C4CCN(CC(C)C)CC4)cc3c2C(C)C)cn(C)c(=O)c1Cl [Example 106, 3-chloro-5-(5-(1-isobutylpiperidin-4-yl)-3-isopropyl-1H-indol-2-yl)-1,4-dimethylpyridin-2(1H)-one] | 6.2 nM | 5.5 nM | 1250 nM |
| Cc1nc(-c2[nH]c3ccc(C4CCN(C5CCOCC5)CC4)cc3c2C(C)C)cn(C)c1=O [Example 185, 5-(3-isopropyl-5-(1-(tetrahydro-2H-pyran-4-yl)piperidin-4-yl)-1H-indol-2-yl)-1,3-dimethylpyrazin-2(1H)-one] | 61.3 nM | 19 nM | 4320 nM |
| Cc1c(-c2[nH]c3ccc(C4CCN(C(=O)CN(C)C)CC4)cc3c2C(C)C)cn(C)c(=O)c1C [Example 280, 5-(5-(1-(dimethylglycyl)piperidin-4-yl)-3-isopropyl-1H-indol-2-yl)-1,3,4-trimethylpyridin-2(1H)-one] | 6.1 nM | 9 nM | 4570 nM |
| CN[C@H](C)C(=O)N1CCC(c2ccc3[nH]c(-c4cc(C)c(=O)n(C)c4)c(C(C)C)c3c2)CC1 [Example 299, 5-(3-isopropyl-5-(1-(methyl-D-alanyl)piperidin-4-yl)-1H-indol-2-yl)-1,3-dimethylpyridin-2(1H)-one] | 3.7 nM | 4.3 nM | 504 nM |
| Cc1cc(-c2[nH]c3ccc(C4CCN(CC(=O)N(C)C)CC4)cc3c2C(C)C)cn(CC(F)(F)F)c1=O [Example 165, 2-(4-(3-isopropyl-2-(5-methyl-6-oxo-1-(2,2,2-trifluoroethyl)-1,6-dihydropyridin-3-yl)-1H-indol-5-yl)piperidin-1-yl)-N,N-dimethylacetamide] | 45.8 nM | 113 nM | 10100 nM |
| Cc1c(-c2[nH]c3ccc(C4CCN(CC(=O)N(C)C)CC4)cc3c2C(C)C)cc(C#N)c(=O)n1C [Example 145, 2-(4-(2-(5-cyano-1,2-dimethyl-6-oxo-1,6-dihydropyridin-3-yl)-3-isopropyl-1H-indol-5-yl)piperidin-1-yl)-N,N-dimethylacetamide] | 63.8 nM | 10.7 nM | 7170 nM |
| Cc1cc(-c2[nH]c3ccc(C4CCNCC4)cc3c2C(C)C)cn(CC2CC2)c1=O [Example 34, 1-(cyclopropylmethyl)-5-(3-isopropyl-5-(piperidin-4-yl)-1H-indol-2-yl)-3-methylpyridin-2(1H)-one] | 7.1 nM | 48 nM | 1460 nM |
| CC(C)c1c(-c2cn(C)c(=O)cn2)[nH]c2ccc(C3CCNCC3)cc12 [Example 4, 5-(3-isopropyl-5-(piperidin-4-yl)-1H-indol-2-yl)-1-methylpyrazin-2(1H)-one] | 82.8 nM | 38.4 nM | 756 nM |
